In US20180346446A1, “IRE1 SMALL MOLECULE INHIBITORS” (QUENTIS THERAPEUTICS, INC., priority 2017, published 2018):

Tests used:
IRE1a [1] = biological target: T1, IRE1a (Homo sapiens, UniProt O75460); assay: IRE1a Endoribonuclease Nanoluciferase Assay (XBP1 luciferase reporter in 293T cells); type: cell-based; settings: 293T cells transfected with XBP1 luciferase reporter, ER stressors +/- inhibitors
Procedure, shortened: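 293T cells were transfected with a PGK-Luc2-P2A-XBP1u-nanoluciferase-PEST reporter and plated in 96-well format. A day later they were treated with ER stressors with or without inhibitors. Lysates were read for luminescence with OneGlo, then again after Stop and Glo.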

293T cells = assay: Growth assay (cytotoxicity); type: cell-based; settings: 2 day incubation
Procedure: A growth assay was performed to evaluate the compounds disclosed herein for cytotoxicity. Briefly, 5,000,000 293T cells were resuspended in 18 mL of cDMEM for a final concentration of 277,777 cells/mL. […] In a separate 96 well dilution plate, 199 uL cDMEM and 1 uL of DMSO or any one of the compounds disclosed herein (shown as Test Compound 1, 2, 3, 4, 5, or 6 below) were added to wells A4, A8, C4, C8, E4, E8, G4, and G8. 133.3 uL cDMEM was added to wells 1, 2, 3, 5, 6, and 7 in rows A, C, E and G of the dilution plate. Compounds were serially diluted leftwards in threefold dilutions (66.7 uL into 133.3 uL cDMEM). 20 uL of each dilution was transferred in duplicate (duplicates in vertical paired wells) to the cells plated in the 96-well plate shown in Table 5, to the total concentrations shown below. 200 uL cDMEM was added to media wells (wells G5-H8). The plate was then placed in a humidified chamber for a 2 day incubation, and then photographed (media was more yellow in wells with potent cell growth). Absorbance was then measured at about […] (lower for more acidic media) and about […] (higher for more acidic media).

IRE1a [2] = biological target: T1, IRE1a; assay: In vitro FRET assay (XBP1 RNA probe cleavage by IRE1a); type: biochemical; set-up: purchased SignalChem; settings: 2 nM IRE1a protein

T1 sequence (O75460 19-977): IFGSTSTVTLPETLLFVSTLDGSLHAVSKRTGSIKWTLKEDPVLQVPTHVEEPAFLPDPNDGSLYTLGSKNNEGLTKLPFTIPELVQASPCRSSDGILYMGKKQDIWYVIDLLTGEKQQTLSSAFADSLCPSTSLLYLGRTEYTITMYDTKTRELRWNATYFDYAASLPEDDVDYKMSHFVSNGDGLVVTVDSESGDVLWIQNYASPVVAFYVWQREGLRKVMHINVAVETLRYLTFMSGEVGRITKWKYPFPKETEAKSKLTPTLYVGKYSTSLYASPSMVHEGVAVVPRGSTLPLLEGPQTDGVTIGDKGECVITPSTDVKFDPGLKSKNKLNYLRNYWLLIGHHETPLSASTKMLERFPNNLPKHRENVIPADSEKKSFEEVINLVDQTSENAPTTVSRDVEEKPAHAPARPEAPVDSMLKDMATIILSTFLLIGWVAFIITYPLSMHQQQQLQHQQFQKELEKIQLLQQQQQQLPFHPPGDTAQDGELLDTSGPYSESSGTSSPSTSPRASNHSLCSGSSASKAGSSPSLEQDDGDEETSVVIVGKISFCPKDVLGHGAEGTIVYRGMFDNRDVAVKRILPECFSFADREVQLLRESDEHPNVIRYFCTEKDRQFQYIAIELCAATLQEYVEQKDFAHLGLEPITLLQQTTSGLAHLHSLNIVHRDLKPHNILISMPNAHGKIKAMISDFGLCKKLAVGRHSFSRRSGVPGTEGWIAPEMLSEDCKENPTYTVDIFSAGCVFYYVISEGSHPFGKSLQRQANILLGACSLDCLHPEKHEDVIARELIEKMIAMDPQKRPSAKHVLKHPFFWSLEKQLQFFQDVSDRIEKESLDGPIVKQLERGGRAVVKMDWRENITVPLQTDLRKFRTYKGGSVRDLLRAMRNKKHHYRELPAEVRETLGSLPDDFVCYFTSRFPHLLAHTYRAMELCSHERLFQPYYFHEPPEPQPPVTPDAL

Row | Compound | EC50 (IRE1a [1]) | % Growth at 0.185 uM (293T cells) | % Growth at 0.5556 uM (293T cells) | % Growth at 1.667 uM (293T cells) | % Growth at 5 uM (293T cells) | IC50 (IRE1a [2])
1 | CCc1cc(-c2ccc(NS(=O)(=O)c3ccccc3Cl)c(C)c2C)cc2cnc(N[C@H]3CC[C@H](N)CC3)nc12.O=CO [22; Formic Acid] | > 100 nM | D (D: >75% to ≤100%) | D (D: >75% to ≤100%) | D (D: >75% to ≤100%) | A (A: ≤25%) | 5 to 50 nM
2 | CCc1cc(-c2ccc(NS(=O)(=O)c3ccccc3Cl)c(F)c2C)cc2cnc(N[C@H]3CC[C@H](N)CC3)nc12.O=CO [71; Formic Acid] | ≤ 5 nM | D (D: >75% to ≤100%) | D (D: >75% to ≤100%) | C (C: >50% to ≤75%) | B (B: >25% to ≤50%) | ≤ 5 nM
3 | CCc1cc(-c2ncc(NS(=O)(=O)c3ccccc3Cl)cn2)cc2cnc(N[C@H]3CC[C@H](N)CC3)nc12.O=CO [33; Formic Acid] | ≤ 5 nM | D (D: >75% to ≤100%) | D (D: >75% to ≤100%) | D (D: >75% to ≤100%) | C (C: >50% to ≤75%) | ≤ 5 nM
4 | CCc1cc(-c2nnc(NS(=O)(=O)c3ccccc3Cl)cc2OC)cc2cnc(N[C@H]3CC[C@H](N)CC3)nc12.O=CO [65; Formic Acid] | 5 to 50 nM | D (D: >75% to ≤100%) | D (D: >75% to ≤100%) | D (D: >75% to ≤100%) | C (C: >50% to ≤75%) | ≤ 5 nM
5 | CCc1cc(-c2cnc(NS(=O)(=O)c3ccccc3Cl)nc2C)cc2cnc(N[C@H]3CC[C@H](N)CC3)nc12.O=CO [23; Formic Acid] | ≤ 5 nM | D (D: >75% to ≤100%) | C (C: >50% to ≤75%) | C (C: >50% to ≤75%) | D (D: >75% to ≤100%) | ≤ 5 nM
6 | CCc1cc(-c2nnc(NS(=O)(=O)c3ccccc3Cl)cc2C)cc2cnc(N[C@H]3CC[C@H](N)CC3)nc12.O=CO [67; Formic Acid] | 5 to 50 nM | D (D: >75% to ≤100%) | D (D: >75% to ≤100%) | C (C: >50% to ≤75%) | C (C: >50% to ≤75%) | ≤ 5 nM
7 | CCc1cc(-c2ncc(NS(=O)(=O)c3ccccc3Cl)cc2F)cc2cnc(N[C@H]3CC[C@H](N)CC3)nc12.O=CO [52; Formic Acid] | ≤ 5 nM | D (D: >75% to ≤100%) | D (D: >75% to ≤100%) | D (D: >75% to ≤100%) | C (C: >50% to ≤75%) | ≤ 5 nM
8 | CCc1cc(-c2ncc(NS(=O)(=O)c3ccccc3Cl)cc2C)cc2cnc(N[C@H]3CC[C@H](N)CC3)nc12.O=CO [20; Formic Acid] | 50 to 100 nM | D (D: >75% to ≤100%) | D (D: >75% to ≤100%) | D (D: >75% to ≤100%) | C (C: >50% to ≤75%) | ≤ 5 nM
9 | CCc1cc(-c2cnc(NS(=O)(=O)c3ccccc3Cl)nc2OC)cc2cnc(N[C@H]3CC[C@H](N)CC3)nc12.O=CO [46; Formic Acid] | ≤ 5 nM | D (D: >75% to ≤100%) | D (D: >75% to ≤100%) | D (D: >75% to ≤100%) | D (D: >75% to ≤100%) | ≤ 5 nM
10 | CCc1cc(-c2ccc(NS(=O)(=O)c3ccccc3Cl)nc2)cc2cnc(N[C@H]3CC[C@H](N)CC3)nc12.O=CO [27; Formic Acid] | ≤ 5 nM | D (D: >75% to ≤100%) | D (D: >75% to ≤100%) | C (C: >50% to ≤75%) | B (B: >25% to ≤50%) | ≤ 5 nM
11 | CCc1cc(-c2ccc(NS(=O)(=O)c3cccc(C)c3)nc2C)cc2cnc(N[C@H]3CC[C@H](N)CC3)nc12 [113; Formic Acid] | 5 to 50 nM |  |  |  |  | ≤ 5 nM
12 | CCCc1cc(-c2cc(NS(=O)(=O)c3ccccc3Cl)nn2C)cc2cnc(N[C@H]3CC[C@H](N)CC3)nc12 [47; Formic Acid] | 5 to 50 nM |  |  |  |  | ≤ 5 nM
13 | CCc1cc(-c2ncc(NS(=O)(=O)c3ccccc3Cl)nc2OC)cc2cnc(N[C@H]3CC[C@H](N)CC3)nc12 [98; Formic Acid] | ≤ 5 nM |  |  |  |  | ≤ 5 nM
14 | Cc1cc2nc(N[C@H]3CC[C@H](N)CC3)ncc2cc1-c1ccc(NS(=O)(=O)c2ccccc2Cl)c(F)c1 [90; Formic Acid] | 5 to 50 nM |  |  |  |  | ≤ 5 nM
15 | COc1nc(NS(=O)(=O)c2ccccc2Cl)ccc1-c1cc(C(C)(F)F)c2nc(N[C@H]3CC[C@H](N)CC3)ncc2c1 [123; Formic Acid] | ≤ 5 nM |  |  |  |  | ≤ 5 nM
16 | CCc1cc(-c2cc(NS(=O)(=O)c3ccccc3Cl)nn2C)cc2cnc(N[C@H]3CC[C@H](N)CC3)nc12 [Compound 6, N-(5-(2-(((1r,4r)-4-aminocyclohexyl)amino)-8-ethylquinazolin-6-yl)-1-methyl-1H-pyrazol-3-yl)-2-chlorobenzenesulfonamide] | 50 to 100 nM |  |  |  |  | ≤ 5 nM
17 | CCc1cc(-c2ccc(NS(=O)(=O)c3ccccc3Cl)nc2OC(F)(F)F)cc2cnc(N[C@H]3CC[C@H](N)CC3)nc12 [107; Formic Acid] | ≤ 5 nM |  |  |  |  | ≤ 5 nM
18 | N[C@H]1CC2C[C@@H](Nc3ncc4cc(-c5ccc(NS(=O)(=O)c6ccccc6Cl)c(F)c5)ccc4n3)CC2C1 (stereo partly drawn) [85; Formic Acid] | > 100 nM |  |  |  |  | ≤ 5 nM
19 | COc1nc(NS(=O)(=O)c2ccccc2Cl)ccc1-c1cc(C)c2nc(N[C@H]3CC[C@H](N)CC3)ncc2c1 [115; Formic Acid] | ≤ 5 nM |  |  |  |  | ≤ 5 nM
20 | CCc1cc(-c2ccc(NS(=O)(=O)c3ccccc3Cl)c(F)c2)cc2cnc(N[C@H]3CC4C[C@H](N)CC4C3)nc12 (stereo partly drawn) [82; Formic Acid] | 5 to 50 nM |  |  |  |  | ≤ 5 nM
21 | CCc1cc(-c2ncc(NS(=O)(=O)c3ccccc3Cl)nc2C)cc2cnc(N[C@H]3CC[C@H](N)CC3)nc12 [94; Formic Acid] | ≤ 5 nM |  |  |  |  | ≤ 5 nM
22 | N[C@H]1CC[C@H](Nc2ncc3cc(-c4nnc(NS(=O)(=O)c5ccccc5Cl)s4)ccc3n2)CC1 [89; Formic Acid] | > 100 nM |  |  |  |  | ≤ 5 nM
23 | O=S(=O)(Nc1ccc(-c2ccc3nc(N[C@H]4CCCNC4)ncc3c2)cc1F)c1ccccc1Cl [76; Formic Acid] | 5 to 50 nM |  |  |  |  | ≤ 5 nM
24 | CCc1cc(-c2ccc(NS(=O)(=O)c3ccccc3OC)nc2OC)cc2cnc(N[C@H]3CC[C@H](N)CC3)nc12 [109; Formic Acid] | ≤ 5 nM |  |  |  |  | ≤ 5 nM
25 | CCc1cc(-c2ccc(NS(=O)(=O)c3ccccc3Cl)c(F)c2)cc2cnc(N[C@H]3CC[C@H](N4CCCC4)CC3)nc12 [88; Formic Acid] | ≤ 5 nM |  |  |  |  | ≤ 5 nM
26 | CCc1cc(-c2ncc(NS(=O)(=O)c3ccccc3Cl)cc2OC)cc2cnc(N[C@H]3CC[C@H](N)CC3)nc12 [93; Formic Acid] | ≤ 5 nM |  |  |  |  | ≤ 5 nM
27 | CCc1cc(-c2cnc(NS(=O)(=O)c3ccccc3Cl)cc2OC)cc2cnc(N[C@H]3CC[C@H](N)CC3)nc12 [92; Formic Acid] | > 100 nM |  |  |  |  | ≤ 5 nM
28 | Cc1nc(NS(=O)(=O)c2ccccc2Cl)ncc1-c1ccc2nc(N[C@H]3CC[C@H](N)CC3)ncc2c1 [68; Formic Acid] | 50 to 100 nM |  |  |  |  | ≤ 5 nM
